We go through 3 compounds from patent publication US3944580A, “7-[2-(Dithiocarboxylamino)alkanamido]-cephalosporanic acid derivatives” (American Home Products Corporation, priority 1974, dated 1976).

Experiment [1] has as its system bacillus subtilis (BA SU) 663. In words: agar serial dilution MIC, BA SU 663. The experiment is classed as cell-based. To be noted: BA SU strain 663. The text has this:
(§1) The compounds of this invention are antibacterials effective against gram-positive and gram-negative test organisms as well as penicillin resistant staphylococcus at an inhibitory concentration at or below 250 micrograms per milliliter using the well-known and scientifically accepted agar serial dilution technique. […] Thus, the compounds of this invention are useful in the fields of comparative pharmacology and microbiology and may be used in the treatment of bovine mastitis, as growth promotors in animals and for the treatment of infections amenable to treatment with penicillins and cephalosporins.
(§2) The following examples are presented for purposes of illustration and should not be construed as limitations upon the true scope of this invention.
Ba su -- bacillus subtilis

Experiment [2] relates to staphylococcus aureus (ST AU) 6538P. In words: agar serial dilution MIC, ST AU 6538P. The experiment is classed as cell-based.
Source text: as §1, §2
(§3) St au -- staphylococcus aureus

For experiment [3], the system named is staphylococcus aureus (ST AU) Smith. In words: agar serial dilution MIC, ST AU Smith. The experiment is classed as cell-based.
Source text: as §1, §2, §3

Experiment [4] concerns staphylococcus aureus (ST AU) CHP. In words: agar serial dilution MIC, ST AU CHP. Format: cell-based. To be noted: ST AU strain CHP.
Source text: as §1, §2, §3

The subject of experiment [5] is staphylococcus aureus (ST AU) 53-180. In words: agar serial dilution MIC, ST AU 53-180. Format: cell-based.
Source text: as §1, §2, §3

The subject of experiment [6] is neisseria catarrhalis (NE CA) 8193. In words: agar serial dilution MIC, NE CA 8193. The experiment is classed as cell-based. To be noted: NE CA strain 8193.
Source text: as §1, §2
Ne ca -- neisseria catarrhalis

The subject of experiment [7] is escherichia coli (ES CO) 9637. In words: agar serial dilution MIC, ES CO 9637. Format: cell-based. To be noted: ES CO strain 9637.
Source text: as §1, §2
(§4) Es co -- escherichia coli

The subject of experiment [8] is escherichia intermedia (ES IN) 65-1. In words: agar serial dilution MIC, ES IN 65-1. Format: cell-based. To be noted: Citrobacter intermedius, ES IN strain 65-1.
Source text: as §1, §2
Es in -- escherichia intermedia

In experiment [9] the test system is salmonella paratyphi (SA PA) 11737. In words: agar serial dilution MIC, SA PA 11737. Format: cell-based. To be noted: Salmonella enterica.
Source text: as §1, §2
Sa pa -- salmonella paratyphi

Experiment [10] concerns klebsiella pneumoniae (KL PN) 10031. In words: agar serial dilution MIC, KL PN 10031. The experiment is classed as cell-based. To be noted: KL PN strain 10031.
Source text: as §1, §2
Kl pn -- klebsiella pneumoniae

Experiment [11] concerns bordetella brochiseptica (BO BR) 4617. In words: agar serial dilution MIC, BO BR 4617. The experiment is classed as cell-based. To be noted: BO BR strain 4617.
Source text: as §1, §2
Bo br -- bordetella brochiseptica

Experiment [12] has as its system proteus vulgaris (PR VU) 6896. In words: agar serial dilution MIC, PR VU 6896. The experiment is classed as cell-based. To be noted: PR VU strain 6896.
Source text: as §1, §2
Pr vu -- proteus vulgaris

Experiment [13] relates to escherichia coli (ES CO) 920. In words: in vivo curative dose in infected mice, ES CO 920. To be noted: subcutaneous at zero time and 6 hours after i.p. infection, 14 days. On the procedure:
(§5) The in vivo activity of the antibacterial agents of this invention was established by subcutaneously administering a dose of the compound being tested at zero time and 6 hours after infection to a randomized group of mice which had been infected with a specific infective agent, such as Escherichia coli, etc., via intraperitoneal injection of 0.5 milliliters of the infective agent in 5 per cent gastric mucin. The mice were then observed for 14 days and any deaths were recorded daily. The curative dose (CD50) was then reported in terms of the milligrams per mouse needed for […] of the infective agent.
as §4

The subject of experiment [14] is proteus mirablis (PR MI) PR-3. In words: in vivo curative dose in infected mice, PR MI PR-3. To be noted: subcutaneous at zero time and 6 hours after i.p. infection, 14 days, mg per mouse, average of several tests. On the procedure: as §5
Pr mi -- proteus mirablis

Experiment [15] deals with salmonella typhosa (SA TY) SAD-12. In words: in vivo curative dose in infected mice, SA TY SAD-12. To be noted: subcutaneous at zero time and 6 hours after i.p. infection, 14 days, mg per mouse, average of several tests. On the procedure: as §5
Sa ty -- salmonella typhosa

Experiment [16] has as its system staphylococcus aureus (ST AU) Smith. In words: in vivo curative dose in infected mice, ST AU Smith. To be noted: subcutaneous at zero time and 6 hours after i.p. infection, 14 days, mg per mouse, average of several tests. On the procedure:
as §5, §3

Experiment [17] deals with shigella sonnei (SH SO) SH-1. In words: in vivo curative dose in infected mice, SH SO SH-1. To be noted: subcutaneous at zero time and 6 hours after i.p. infection, 14 days, mg per mouse, average of several tests. On the procedure: as §5
A further experiment has as its system EN AE 13048. In words: agar serial dilution MIC, EN AE 13048. Format: cell-based. To be noted: EN AE strain 13048.
Source text: as §1, §2

Where [18] appears, read: agar serial dilution, ST AU strain 6538P, read-out: MIC.
The mark [19] stands for this setting: agar serial dilution, ST AU strain Smith, read-out: MIC.
[20] abbreviates: agar serial dilution, ST AU strain 53-180, read-out: MIC.

In brackets after ≈: the same amount, converted by molar mass. Where two headings read alike, the source gives them in different places.

For `CC(=O)OCC1=C(C(=O)O)N2C(=O)C(NC(=O)CNC(=S)SCC(=O)O)C2SC1` (stereo not drawn) [Example 1, 7-[2-(Dithiocarboxyamino)acetamido]cephalosporanic acid N-carboxymethyl ester], the MIC in [1] stood at 0.244 µg/mL (≈ 0.526 µM); in experiment [2] (setting [18]), 0.976 µg/mL (≈ 2.11 µM); in [3] (setting [19]) it was 0.976 µg/mL (≈ 2.11 µM); in experiment [4], 3.9 µg/mL (≈ 8.41 µM); in [5] (setting [20]) it was 3.9 µg/mL (≈ 8.41 µM); in experiment [6], 250 µg/mL (≈ 539 µM). Also, the MIC in experiment [7] was determined as 62.5 µg/mL (≈ 135 µM); in experiment [8], 250 µg/mL (≈ 539 µM); in experiment [9], 7.81 µg/mL (≈ 16.8 µM); in [10], 31.3 µg/mL (≈ 67.5 µM); in [11], 15.6 µg/mL (≈ 33.7 µM); in experiment [12], 15.6 µg/mL (≈ 33.7 µM). In addition, the “in vivo curative dose (CD50)” value is given as 4.48 mg in experiment [13] (mg per mouse, average of several tests, ES CO 920); 1.96 mg in experiment [14]; 1.41 mg in [15]; 4.37 mg in experiment [16]; 2.66 mg in experiment [17].

As to `CC(=O)OCC1=C(C(=O)O)N2C(=O)C(NC(=O)CCNC(=S)SCC(=O)O)C2SC1` (stereo not drawn) [Example 2, 7-[3-(Dithiocarboxyamino)propionamido]cephalosporanic acid N-carboxymethyl ester], the MIC amounted to 0.488 µg/mL (≈ 1.02 µM) in [1]; 0.976 µg/mL (≈ 2.04 µM) in experiment [2]; 0.976 µg/mL (≈ 2.04 µM) in [3]; 3.9 µg/mL (≈ 8.17 µM) in [4]; 3.9 µg/mL (≈ 8.17 µM) in [5] (setting [20]); 125 µg/mL (≈ 262 µM) in [6]. The MIC came to 15.6 µg/mL (≈ 32.7 µM) in experiment [7]; 0.976 µg/mL (≈ 2.04 µM) in experiment [9]; 31.3 µg/mL (≈ 65.5 µM) in experiment [10]; 7.81 µg/mL (≈ 16.4 µM) in [11]; 1.95 µg/mL (≈ 4.08 µM) in experiment [12].

`CC(=O)OCC1=C(C(=O)O)N2C(=O)C(NC(=O)C(NC(=S)SCC(=O)O)c3ccccc3)C2SC1` (stereo not drawn) [Example 3, 7-[2-(Dithiocarboxyamino)phenylacetamido]cephalosporanic acid N-carboxymethyl ester]: the MIC in experiment [1] amounted to 3.9 µg/mL (≈ 7.23 µM); in experiment [2] (setting [18]) it was 7.81 µg/mL (≈ 14.5 µM); in experiment [3] (setting [19]), 7.81 µg/mL (≈ 14.5 µM); in experiment [4] it was 31.3 µg/mL (≈ 58 µM); in experiment [5], 15.6 µg/mL (≈ 28.9 µM); in experiment [6], 250 µg/mL (≈ 463 µM). Besides, the MIC in experiment [7] came out at 31.3 µg/mL (≈ 58 µM); in experiment [8], 250 µg/mL (≈ 463 µM); in experiment [9], 15.6 µg/mL (≈ 28.9 µM); against EN AE 13048 it was 250 µg/mL (≈ 463 µM); in experiment [10], 31.3 µg/mL (≈ 58 µM); in [11] it was 125 µg/mL (≈ 232 µM). Further, in experiment [12], the MIC stood at 7.81 µg/mL (≈ 14.5 µM). This compound had a CD50 in experiment [13] (ES CO-920) of 6.0 milligrams/mouse.

In general, MIC refers to the lowest concentration that inhibits growth of the organism.
